Data set [1] addresses anthrax edema factor (EF) (Bacillus anthracis, UniProt P40136). The data set is described as follows: cell-based.
Data set [2] relates to ETEC H10507 or other enteric bacteria. In kind it is cell-based, E. coli and Salmonella.
For data set [3], the system named is bacterial adhesion to HeLa cells. In kind it is cell-based.
The test system of data set [4] is bacterial adhesion to Caco-2 cells. It is filed as cell-based.
Data set [5] relates to RAW 264.7 cells.
The subject of data set [6] is Enterotoxigenic E. coli (ETEC). The following applies: mouse, in vivo.
The subject of data set [7] is Cholera toxin (CT). The following applies: mouse, in vivo.
A short description of data set [8]: physchem. The following applies: organic solvent or mixture.
Data set [9] relates to cholera toxin. In kind it is cell-based, Vibrio cholerae.

The values that follow come from patent publication US8003692B2 (priority 2007, dated 2011).

Several values for one entry are separate records, joined by “and”; a condition that tells them apart may be missing. Identical values can stand only once. Entries after “also recorded” stand apart in the source; their conditions may differ. Like-named read-outs stand apart in the source and are kept apart here.

Chain of anthrax edema factor (EF) (P40136 whole entry, looked up): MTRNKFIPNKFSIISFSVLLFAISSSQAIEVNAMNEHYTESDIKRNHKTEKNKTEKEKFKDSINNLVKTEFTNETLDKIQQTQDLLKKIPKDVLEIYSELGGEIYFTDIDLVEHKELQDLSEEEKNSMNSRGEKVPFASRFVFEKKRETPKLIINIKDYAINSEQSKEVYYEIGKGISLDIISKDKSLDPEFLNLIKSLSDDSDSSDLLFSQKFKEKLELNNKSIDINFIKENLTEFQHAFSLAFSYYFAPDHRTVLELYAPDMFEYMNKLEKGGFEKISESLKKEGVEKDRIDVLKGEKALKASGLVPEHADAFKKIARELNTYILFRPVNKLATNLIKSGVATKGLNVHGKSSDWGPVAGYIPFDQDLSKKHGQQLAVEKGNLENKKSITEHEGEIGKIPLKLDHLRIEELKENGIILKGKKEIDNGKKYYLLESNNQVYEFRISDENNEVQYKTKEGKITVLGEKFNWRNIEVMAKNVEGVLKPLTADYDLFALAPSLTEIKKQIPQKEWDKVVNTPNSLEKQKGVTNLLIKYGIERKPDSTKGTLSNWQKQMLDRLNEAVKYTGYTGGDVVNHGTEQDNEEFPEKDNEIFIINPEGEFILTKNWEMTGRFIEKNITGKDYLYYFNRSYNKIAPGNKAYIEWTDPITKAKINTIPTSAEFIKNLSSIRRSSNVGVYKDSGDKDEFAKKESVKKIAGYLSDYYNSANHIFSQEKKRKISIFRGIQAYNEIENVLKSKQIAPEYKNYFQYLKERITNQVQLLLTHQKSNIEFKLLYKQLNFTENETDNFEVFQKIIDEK

Regarding `O=C(O)c1cccc(NC(=O)c2cccc3c2C(=O)c2ccccc2-3)c1` [FIV-50, 3-[(9-Oxo-9H-fluorene-1-carbonyl)-amino]-benzoic acid], the “inhibition of EF / Edema Toxin induced cAMP production (in words)” value in data set [1] is reported as “extremely effective; also recorded: more active than PGE2-imidazole”. Also, the IC50 in data set [1] (IC50) is 1.7 to 9 µM; in data set [1] (IC50 values), 1.7 to 5 µM; in [1] (IC50 values, mean), 4.74 µM; in [1] (IC50 values, range), 0.291 to 12.3 µM. In addition, in data set [2], the “effect on bacterial growth rate (in words)” value is given as “no effect on growth”. In addition, the “effect on bacterial adherence (in words)” value in data set [3] is “Reduction in adherence was only observed in ETEC”; in data set [4] it was “no reduction in adherence”. Besides, the “cytotoxicity in LDH assay (in words)” value in [5] is “no obvious cytotoxic effect”. Further, the “differences in the number of bacteria recovered” value in [6] amounted to 3 logs. Besides, the “Reduction of fluid accumulation” value in data set [7] is “Yes”. For the same compound, the Toxicity result in [7] is listed as “No”. In addition, the solubility in data set [8] was no less than 100 mM.
Take `O=C(O)c1cc(NC(=O)c2cccc3c2C(=O)c2ccccc2-3)ccc1O` [FIV-35, 2-Hydroxy-5-[(9-oxo-9H-fluorene-1-carbonyl)-amino]-benzoic acid]: the IC50 in data set [1] (IC50) came to 6.2 µM.
Turning to `COc1ccc(C2=C(C)C(=O)CC2)cn1` [FI-14, 3-(6-Methoxy-pyridin-3-yl)-2-methyl-cyclopent-2-enone], the “inhibition of EF / Edema Toxin induced cAMP production (in words)” value in data set [1] is on record as “good activity”. Moreover, the IC50 in data set [1] (read-out: IC-50) amounted to 24 µM.
`Cc1c(NC(=O)c2cccc3c2C(=O)c2ccccc2-3)cccc1C(=O)O` [FIV-55, 2-Methyl-3-[(9-oxo-9H-fluorene-1-carbonyl)-amino]-benzoic acid] showed an IC50 in data set [1] (IC50) of 11.4 µM.
As to `COc1cccc(C2=CC(=O)CC(c3ccc(F)cc3)C2)c1` (centres unmarked) [FI-2, 5-(4-Fluoro-phenyl)-3-(3-methoxy-phenyl)-cyclohex-2-enone], in data set [1], the “inhibition of EF / Edema Toxin induced cAMP production (in words)” value is listed as “cAMP inhibitory activity”. The compound further yielded an IC50 in data set [1] (IC50) of 28 µM. Further, in [1] (Selected assay results (IC50)), the IC50 was 21.4 µM and 27.3 µM. Besides, the “cytotoxicity in LDH assay (in words)” value in data set [5] is “minimal cytotoxic effect”. Moreover, the “toxic effects in the animals (in words)” value in [7] (Swiss-Webster) is recorded as “number of animals surviving the full 6 hour of the incubation was reduced by half”. Also, in data set [7], the “Reduction of fluid accumulation” value was “Yes”, the Toxicity entry was “No” and the “toxic effects in the animals (in words)” value is “highly toxic”.
Take `O=C(Nc1cccc(OC(F)(F)F)c1)c1cccc2c1C(=O)c1ccccc1-2` [FIV-67, 9-Oxo-9H-fluorene-1-carboxylic acid (3-trifluoromethoxy-phenyl)-amide]: the IC50 in data set [1] (IC50) came to 6.9 µM.
With `COc1cccc(C2=C(C)C(=O)CC2)n1` [FI-21, 3-(6-Methoxy-pyridin-2-yl)-2-methyl-cyclopent-2-enone], in data set [1], the “inhibition of EF / Edema Toxin induced cAMP production (in words)” value is on record as “good activity”. Moreover, the IC50 in [1] (read-out: IC-50) amounted to 30 µM.
In the case of `N#Cc1ccc(NC(=O)c2cccc3c2C(=O)c2ccccc2-3)c(Cl)c1` [FIV-70, 9-Oxo-9H-fluorene-1-carboxylic acid (2-chloro-4-cyano-phenyl)-amide], the IC50 in [1] (IC50) is 50 µM.
For `COc1cccc([C@H]2Nc3ccc(C(=O)O)cc3[C@@H]3C=CC[C@H]23)c1` (stereo in doubt) [FII-1, 4-(3-methoxy-phenyl)-3a,4,5,9b-tetrahydro-3H-cyclopenta[c]quinoline-8-carboxylic acid], the “inhibition of EF / Edema Toxin induced cAMP production (in words)” value in data set [1] is given as “effective; also recorded: more active than PGE2-imidazole”. For the same compound, in data set [1] (IC50 values), the IC50 was 1.8 to 7 µM. For the same compound, the “cytotoxicity in LDH assay (in words)” value in [5] is “no obvious cytotoxic effect”. Besides, in [7], the “Reduction of fluid accumulation” value is recorded as “No*”, the Toxicity entry was “No”, the “accumulation of intestinal fluid after experimental infection with CT (in words)” value is “did not cause a significant reduction in fluid accumulation” and the “toxic effects in the animals (in words)” value is recorded as “Toxic effects were observed”.
As for `COc1ccccc1C1=CC(=O)CCC1` [FI-27, 3-(2-Methoxy-phenyl)-cyclohex-2-enone], in [1] (read-out: IC-50), the IC50 is 35 µM.
For the compound `N=C(N)c1cccc(NC(=O)c2cccc3c2C(=O)c2ccccc2-3)c1` [FIV-68, 9-Oxo-9H-fluorene-1-carboxylic acid (3-carbamimidoyl-phenyl)-amide], the IC50 in data set [1] (IC50) worked out at 2.71 µM.
Consider `COc1cccc(C2=CC(=O)CC(c3ccco3)C2)c1` (centres unmarked) [FI-1, 5-Furan-2-yl-3-(3-methoxy-phenyl)-cyclohex-2-enone], for which, in data set [1], the “inhibition of EF / Edema Toxin induced cAMP production (in words)” value is “did not inhibit”. Further, the IC50 in data set [1] (IC50) is 20 µM. In [1] (Selected assay results (IC50)), the IC50 is 20.4 µM and > 100 µM. The “inhibition of cholera toxin induced cAMP (in words)” value in data set [9] is given as “did not inhibit”. Moreover, in data set [7] (Swiss-Webster), the “toxic effects in the animals (in words)” value is reported as “toxic effects similar to FI-2”. Also, in data set [7], the “Reduction of fluid accumulation” value is given as “No”, the Toxicity result is “Yes” and the “accumulation of intestinal fluid after experimental infection with CT (in words)” value is “did not cause a reduction in fluid accumulation”.
For the compound `COC(=O)c1cccc(NC(=O)c2cccc3c2C(=O)c2ccccc2-3)c1C` [FIV-54, 2-Methyl-3-[(9-oxo-9H-fluorene-1-carbonyl)-amino]-benzoic acid methyl ester], in data set [1] (IC50), the IC50 came out at 12.9 µM.
As to `O=C(O)c1ccc(/N=C/c2c3ccccc3cc3ccccc23)cc1O` [FIII-1, 4-[(Anthracen-9-ylmethylene)-amino]-2-hydroxy-benzoic acid], in data set [1], the “inhibition of EF / Edema Toxin induced cAMP production (in words)” value was “more active than PGE2-imidazole”. Moreover, the IC50 in data set [1] (read-out: IC50 values) came out at 9 µM.
Regarding `COc1cccc(C2=CC(=O)CCC2)c1` [FI-15, 3-(3-Methoxy-phenyl)-cyclohex-2-enone], the IC50 in data set [1] (read-out: IC-50) came out at 30 µM.
Compound `CN(C)c1cccc(NC(=O)c2cccc3c2C(=O)c2ccccc2-3)c1` [FIV-65, 9-Oxo-9H-fluorene-1-carboxylic acid (3-dimethylamino-phenyl)-amide] had an IC50 in data set [1] (IC50) of 1.5 µM.
The same measure, in the same setting: to `COc1ccc(C(=O)O)cc1NC(=O)c1cccc2c1C(=O)c1ccccc1-2` [FIV-1, 4-Methoxy-3-[(9-oxo-9H-fluorene-1-carbonyl)-amino]-benzoic acid] belongs 5.8 µM; to `COC(=O)c1ccc(OC)c(NC(=O)c2cccc3c2C(=O)c2ccccc2-3)c1` [FIV-58, 4-Methoxy-3-[(9-oxo-9H-fluorene-1-carbonyl)-amino]-benzoic acid methyl ester], 7.2 µM.
Take `O=C1C=C(c2ccc3[nH]ccc3c2)CCC1` [FI-17, 3-(1H-Indol-5-yl)-cyclohex-2-enone]: the “inhibition of EF / Edema Toxin induced cAMP production (in words)” value in [1] was “comparable activity to the best compounds”. Further, the IC50 in [1] (read-out: IC-50) amounted to 56 µM.
For `COc1cccc(C2=CC(=O)CCC2)n1` [FI-9, 3-(6-Methoxy-pyridin-2-yl)-cyclohex-2-enone], the “inhibition of EF / Edema Toxin induced cAMP production (in words)” value in [1] is reported as “not active”.
For the compound `O=C(O)c1cccc(NC(=O)c2cccc3c2C(=O)c2ccccc2-3)c1O` [FIV-39, 2-Hydroxy-3-[(9-oxo-9H-fluorene-1-carbonyl)-amino]-benzoic acid], in data set [1] (IC50), the IC50 amounted to 5.6 µM.
On the same count and under the same terms, to `O=C(Nc1ccc(F)c(Cl)c1)c1cccc2c1C(=O)c1ccccc1-2` [FIV-60, 9-Oxo-9H-fluorene-1-carboxylic acid (3-chloro-4-fluoro-phenyl)-amide] belongs 3.8 µM.
Consider `O=C1C=C(c2ccc3c(c2)OCO3)CCC1` [FI-18, 3-Benzo[1,3]dioxol-5-yl-cyclohex-2-enone], for which the IC50 in data set [1] (read-out: IC-50) came to 53 µM.
As to `COc1cccc(C2=C(C)C(=O)CC2)n1` [FI-3, 3-(6-Methoxy-pyridin-2-yl)-2-methyl-cyclopent-2-enone], the “inhibition of EF / Edema Toxin induced cAMP production (in words)” value in data set [1] was “most consistently been active; also recorded: dose-dependent activity and reduced extracellular cAMP accumulation”. For the same compound, the IC50 in data set [1] (Selected assay results (IC50)) was 38.8 µM and 64.1 µM and 11.1 µM and 29.4 µM; in [1] (read-out: IC50), 30 µM; in [1] (read-out: Selected assay results (IC50)), 29.9 µM. For the same compound, in [9], the “inhibition of cholera toxin induced cAMP (in words)” value is recorded as “most consistently been active; also recorded: inhibits cholera toxin induced cAMP, but not quite as well as PGE2-imidazole”. Further, the “toxic effects in the animals (in words)” value is “several animals treated with the CT+FI-3 mixture died” in data set [7] (Swiss-Webster); “displayed edema, blood and fluid accumulation” in data set [7]. For the same compound, in data set [7], the “Reduction of fluid accumulation” value was “Yes”.
In the case of `O=C(Nc1ccccc1)c1cccc2c1C(=O)c1ccccc1-2` [FIV-61, 9-Oxo-9H-fluorene-1-carboxylic acid phenylamide], the IC50 in data set [1] (IC50) stood at 28.6 µM.

The solubility is the dissolved amount per volume that the medium holds.
